Data as given in ChEMBL document CHEMBL5291721, “A preclinical secondary pharmacology resource illuminates target-adverse drug reaction associations of marketed drugs” (Nat Commun, 2023).
Values belong to the compound of their own block, whether it stands above or below them.

Assays:
Acetylcholinesterase [1] = target: T1, Acetylcholinesterase (Homo sapiens, UniProt P22303); format: functional
[2] = target: Voltage-gated inwardly rectifying potassium channel KCNH2 (Homo sapiens, UniProt Q12809); format: functional; conditions: read-out: AC50
[3] = target: T2, 5-hydroxytryptamine receptor 2B (Homo sapiens, UniProt P41595); format: functional, cell-based
T2 sequence (P41595 whole entry): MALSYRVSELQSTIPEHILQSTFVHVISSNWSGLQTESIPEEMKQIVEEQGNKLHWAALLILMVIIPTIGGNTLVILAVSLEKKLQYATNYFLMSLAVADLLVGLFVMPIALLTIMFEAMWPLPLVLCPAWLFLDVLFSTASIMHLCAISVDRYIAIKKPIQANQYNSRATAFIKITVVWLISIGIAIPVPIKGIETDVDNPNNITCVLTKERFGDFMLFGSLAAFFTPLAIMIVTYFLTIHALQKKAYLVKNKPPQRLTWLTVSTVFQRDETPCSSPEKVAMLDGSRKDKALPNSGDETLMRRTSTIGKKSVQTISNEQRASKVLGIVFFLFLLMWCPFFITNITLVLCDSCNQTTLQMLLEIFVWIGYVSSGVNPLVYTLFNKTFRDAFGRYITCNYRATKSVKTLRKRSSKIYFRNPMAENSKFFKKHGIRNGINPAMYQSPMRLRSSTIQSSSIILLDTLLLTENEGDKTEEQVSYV

D(3) dopamine receptor = D(3) dopamine receptor (Homo sapiens, UniProt P35462)
[4] = target: T3, Gamma-aminobutyric acid receptor subunit alpha-1 (Rattus norvegicus, UniProt P62813)
T3 sequence (P62813 whole entry): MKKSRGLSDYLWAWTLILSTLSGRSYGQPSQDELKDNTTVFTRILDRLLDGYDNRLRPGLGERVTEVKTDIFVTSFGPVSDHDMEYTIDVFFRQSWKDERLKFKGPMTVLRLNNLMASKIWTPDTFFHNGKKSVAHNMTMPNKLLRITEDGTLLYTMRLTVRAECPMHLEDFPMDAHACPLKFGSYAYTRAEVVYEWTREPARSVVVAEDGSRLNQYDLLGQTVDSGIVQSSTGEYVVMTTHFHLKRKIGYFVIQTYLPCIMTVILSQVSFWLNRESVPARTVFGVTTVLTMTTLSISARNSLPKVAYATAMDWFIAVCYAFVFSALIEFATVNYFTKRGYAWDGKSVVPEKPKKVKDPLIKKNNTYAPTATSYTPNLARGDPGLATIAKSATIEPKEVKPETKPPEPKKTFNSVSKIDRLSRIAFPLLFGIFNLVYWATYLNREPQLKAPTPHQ

[5] = target: Neuronal acetylcholine receptor subunit alpha-4 (Homo sapiens, UniProt P43681)
[6] = target: Sodium-dependent noradrenaline transporter (Homo sapiens, UniProt P23975)
Chain of Sodium-dependent noradrenaline transporter (P23975 whole entry): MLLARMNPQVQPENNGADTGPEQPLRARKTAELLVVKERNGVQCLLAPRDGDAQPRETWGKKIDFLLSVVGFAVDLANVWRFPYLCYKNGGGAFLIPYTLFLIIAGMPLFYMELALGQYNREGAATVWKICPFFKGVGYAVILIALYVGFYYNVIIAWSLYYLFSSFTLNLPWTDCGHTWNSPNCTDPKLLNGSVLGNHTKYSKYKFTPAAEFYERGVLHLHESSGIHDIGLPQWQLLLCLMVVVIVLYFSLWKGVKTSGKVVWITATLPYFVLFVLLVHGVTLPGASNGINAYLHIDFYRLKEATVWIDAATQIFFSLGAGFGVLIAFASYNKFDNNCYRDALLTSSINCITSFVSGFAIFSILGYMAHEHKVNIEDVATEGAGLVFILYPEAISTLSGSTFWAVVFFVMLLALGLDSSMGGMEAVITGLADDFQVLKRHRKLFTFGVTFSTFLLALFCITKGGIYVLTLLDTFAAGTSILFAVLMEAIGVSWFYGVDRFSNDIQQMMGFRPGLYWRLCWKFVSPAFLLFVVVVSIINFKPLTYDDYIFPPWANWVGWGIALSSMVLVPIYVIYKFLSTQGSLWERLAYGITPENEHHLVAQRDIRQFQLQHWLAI

[7] = target: T3, Gamma-aminobutyric acid receptor subunit alpha-1; format: functional
D(1A) dopamine receptor = D(1A) dopamine receptor (Homo sapiens, UniProt P21728); format: functional, cell-based
Chain of D(1A) dopamine receptor (P21728 whole entry): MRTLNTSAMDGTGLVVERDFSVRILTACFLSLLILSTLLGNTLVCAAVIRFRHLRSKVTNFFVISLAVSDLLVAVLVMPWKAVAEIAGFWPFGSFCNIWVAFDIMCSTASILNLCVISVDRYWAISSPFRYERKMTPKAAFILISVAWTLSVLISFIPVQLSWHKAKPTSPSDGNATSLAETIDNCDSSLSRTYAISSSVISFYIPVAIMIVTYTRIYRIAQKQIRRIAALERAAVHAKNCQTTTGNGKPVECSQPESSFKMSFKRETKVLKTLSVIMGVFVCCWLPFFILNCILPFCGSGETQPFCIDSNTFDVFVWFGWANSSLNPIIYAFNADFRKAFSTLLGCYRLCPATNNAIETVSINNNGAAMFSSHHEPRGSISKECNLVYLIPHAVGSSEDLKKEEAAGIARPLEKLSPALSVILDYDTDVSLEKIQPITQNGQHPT

[8] = target: Glutamate receptor ionotropic, NMDA 1 (Rattus norvegicus, UniProt P35439)
Mu-type opioid receptor [9] = target: T4, Mu-type opioid receptor (Homo sapiens, UniProt P35372)
T4 sequence (P35372 whole entry): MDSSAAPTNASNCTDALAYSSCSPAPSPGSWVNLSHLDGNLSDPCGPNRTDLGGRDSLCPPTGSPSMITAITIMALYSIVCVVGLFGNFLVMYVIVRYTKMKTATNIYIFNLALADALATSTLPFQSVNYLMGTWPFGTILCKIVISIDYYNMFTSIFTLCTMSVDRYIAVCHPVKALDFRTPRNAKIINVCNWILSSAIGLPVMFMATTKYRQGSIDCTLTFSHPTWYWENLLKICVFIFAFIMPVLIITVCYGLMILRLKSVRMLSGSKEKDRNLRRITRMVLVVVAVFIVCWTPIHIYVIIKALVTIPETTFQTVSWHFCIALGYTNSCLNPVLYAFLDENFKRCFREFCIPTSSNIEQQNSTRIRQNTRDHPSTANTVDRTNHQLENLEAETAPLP

[10] = target: Kappa-type opioid receptor (Homo sapiens, UniProt P41145)
[11] = target: T2, 5-hydroxytryptamine receptor 2B; format: functional, cell-based; remark: listed apart in the source
Cannabinoid receptor 1 = Cannabinoid receptor 1 (Homo sapiens, UniProt P21554)
Mu-type opioid receptor [12] = target: T4, Mu-type opioid receptor; assay: biochemical; format: functional
[13] = target: T5, Muscarinic acetylcholine receptor M5 (Homo sapiens, UniProt P08912)
T5 sequence (P08912 whole entry): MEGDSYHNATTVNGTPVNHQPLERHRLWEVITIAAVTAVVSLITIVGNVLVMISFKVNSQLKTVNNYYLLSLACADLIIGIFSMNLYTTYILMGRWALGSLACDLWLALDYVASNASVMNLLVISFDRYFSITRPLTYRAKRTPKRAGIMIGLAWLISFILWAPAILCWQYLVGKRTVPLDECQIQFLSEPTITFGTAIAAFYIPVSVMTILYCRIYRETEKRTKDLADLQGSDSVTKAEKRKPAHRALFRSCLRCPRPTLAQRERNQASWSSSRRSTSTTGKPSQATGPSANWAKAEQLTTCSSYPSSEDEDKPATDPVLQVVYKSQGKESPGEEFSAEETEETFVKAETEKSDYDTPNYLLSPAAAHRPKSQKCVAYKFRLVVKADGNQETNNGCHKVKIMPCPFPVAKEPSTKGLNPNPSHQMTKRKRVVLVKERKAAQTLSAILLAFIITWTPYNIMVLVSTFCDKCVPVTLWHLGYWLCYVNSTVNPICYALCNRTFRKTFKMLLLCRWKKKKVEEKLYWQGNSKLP

[14] = target: T6, Muscarinic acetylcholine receptor M4 (Homo sapiens, UniProt P08173)
T6 sequence (P08173 whole entry): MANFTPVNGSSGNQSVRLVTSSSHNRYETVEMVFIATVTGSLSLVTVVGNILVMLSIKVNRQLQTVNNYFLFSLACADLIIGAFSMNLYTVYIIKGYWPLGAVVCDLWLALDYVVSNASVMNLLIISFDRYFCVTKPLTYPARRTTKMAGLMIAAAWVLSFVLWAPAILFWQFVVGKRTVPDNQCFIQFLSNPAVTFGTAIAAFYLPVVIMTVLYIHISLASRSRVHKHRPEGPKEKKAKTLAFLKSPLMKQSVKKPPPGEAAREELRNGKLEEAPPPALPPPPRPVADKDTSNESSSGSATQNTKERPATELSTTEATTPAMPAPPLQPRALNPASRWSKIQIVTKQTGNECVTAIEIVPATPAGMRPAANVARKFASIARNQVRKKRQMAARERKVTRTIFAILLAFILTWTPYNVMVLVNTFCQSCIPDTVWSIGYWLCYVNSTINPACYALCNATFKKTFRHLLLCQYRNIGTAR

[15] = target: T7, Alpha-2C adrenergic receptor (Homo sapiens, UniProt P18825); format: functional
T7 sequence (P18825 whole entry): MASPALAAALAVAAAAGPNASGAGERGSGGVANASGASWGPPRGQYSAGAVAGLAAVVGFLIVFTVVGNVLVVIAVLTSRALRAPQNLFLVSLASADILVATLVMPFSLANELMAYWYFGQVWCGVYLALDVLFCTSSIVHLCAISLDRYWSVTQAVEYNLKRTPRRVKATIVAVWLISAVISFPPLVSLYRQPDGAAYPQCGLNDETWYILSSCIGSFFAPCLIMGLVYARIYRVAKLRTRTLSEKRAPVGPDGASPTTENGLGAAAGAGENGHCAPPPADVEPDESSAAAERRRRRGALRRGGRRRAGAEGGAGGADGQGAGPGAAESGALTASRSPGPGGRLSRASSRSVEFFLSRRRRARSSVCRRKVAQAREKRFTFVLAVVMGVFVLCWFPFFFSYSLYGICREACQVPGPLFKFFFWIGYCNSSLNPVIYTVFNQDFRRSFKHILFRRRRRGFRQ

Acetylcholinesterase [16] = target: T1, Acetylcholinesterase; format: functional; remark: listed apart in the source
Bile salt export pump = Bile salt export pump (Homo sapiens, UniProt O95342); format: functional
Chain of Bile salt export pump (O95342 whole entry): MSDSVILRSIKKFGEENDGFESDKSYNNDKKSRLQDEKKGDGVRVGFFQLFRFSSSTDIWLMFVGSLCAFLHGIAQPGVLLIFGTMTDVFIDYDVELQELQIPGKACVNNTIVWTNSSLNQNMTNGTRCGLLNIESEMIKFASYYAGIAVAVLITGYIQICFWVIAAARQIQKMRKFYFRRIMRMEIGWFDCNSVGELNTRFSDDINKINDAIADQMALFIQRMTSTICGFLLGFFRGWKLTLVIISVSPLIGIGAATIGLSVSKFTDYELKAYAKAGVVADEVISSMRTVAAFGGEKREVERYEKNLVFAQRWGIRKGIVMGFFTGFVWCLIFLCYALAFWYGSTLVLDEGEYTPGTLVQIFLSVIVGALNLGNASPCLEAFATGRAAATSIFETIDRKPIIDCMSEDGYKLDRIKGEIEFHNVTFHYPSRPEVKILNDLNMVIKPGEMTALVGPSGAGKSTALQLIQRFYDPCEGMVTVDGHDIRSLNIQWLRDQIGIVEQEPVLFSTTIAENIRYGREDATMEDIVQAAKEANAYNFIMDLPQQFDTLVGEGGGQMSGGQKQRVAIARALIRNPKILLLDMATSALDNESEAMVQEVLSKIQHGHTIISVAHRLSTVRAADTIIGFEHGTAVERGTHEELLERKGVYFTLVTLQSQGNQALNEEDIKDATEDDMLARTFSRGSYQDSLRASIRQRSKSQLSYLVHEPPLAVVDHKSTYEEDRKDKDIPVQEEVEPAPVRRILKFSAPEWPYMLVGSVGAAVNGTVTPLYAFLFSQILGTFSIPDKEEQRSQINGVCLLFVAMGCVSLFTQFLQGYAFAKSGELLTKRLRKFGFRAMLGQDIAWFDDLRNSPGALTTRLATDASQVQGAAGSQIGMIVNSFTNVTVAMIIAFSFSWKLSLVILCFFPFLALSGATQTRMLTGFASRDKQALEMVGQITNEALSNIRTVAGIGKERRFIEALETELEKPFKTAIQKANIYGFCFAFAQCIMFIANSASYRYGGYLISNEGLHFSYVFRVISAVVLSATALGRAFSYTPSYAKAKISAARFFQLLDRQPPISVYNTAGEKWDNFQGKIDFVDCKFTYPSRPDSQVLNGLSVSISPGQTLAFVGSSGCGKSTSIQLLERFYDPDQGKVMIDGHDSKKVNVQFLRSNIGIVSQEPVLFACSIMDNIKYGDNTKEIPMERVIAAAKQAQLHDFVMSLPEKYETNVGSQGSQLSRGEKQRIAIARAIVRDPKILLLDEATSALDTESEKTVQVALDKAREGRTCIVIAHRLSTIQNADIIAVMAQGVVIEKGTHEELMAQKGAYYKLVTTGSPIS

[17] = target: 5-hydroxytryptamine receptor 2A (Homo sapiens, UniProt P28223); format: functional, cell-based
Chain of 5-hydroxytryptamine receptor 2A (P28223 whole entry): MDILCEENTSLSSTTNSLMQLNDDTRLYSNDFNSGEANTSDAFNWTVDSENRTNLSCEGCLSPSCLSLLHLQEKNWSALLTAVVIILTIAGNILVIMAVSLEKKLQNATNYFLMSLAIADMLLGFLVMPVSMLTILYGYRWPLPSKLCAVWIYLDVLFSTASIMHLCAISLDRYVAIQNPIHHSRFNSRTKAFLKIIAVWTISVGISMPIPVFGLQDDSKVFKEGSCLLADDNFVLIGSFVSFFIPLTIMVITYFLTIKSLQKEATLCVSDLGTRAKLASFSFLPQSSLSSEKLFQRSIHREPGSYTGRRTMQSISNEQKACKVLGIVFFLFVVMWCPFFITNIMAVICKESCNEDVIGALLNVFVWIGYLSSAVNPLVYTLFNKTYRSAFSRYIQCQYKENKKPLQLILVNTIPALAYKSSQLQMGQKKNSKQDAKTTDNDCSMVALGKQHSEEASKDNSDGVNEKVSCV
Further: assay procedure not described here.

T1 sequence (P22303 whole entry): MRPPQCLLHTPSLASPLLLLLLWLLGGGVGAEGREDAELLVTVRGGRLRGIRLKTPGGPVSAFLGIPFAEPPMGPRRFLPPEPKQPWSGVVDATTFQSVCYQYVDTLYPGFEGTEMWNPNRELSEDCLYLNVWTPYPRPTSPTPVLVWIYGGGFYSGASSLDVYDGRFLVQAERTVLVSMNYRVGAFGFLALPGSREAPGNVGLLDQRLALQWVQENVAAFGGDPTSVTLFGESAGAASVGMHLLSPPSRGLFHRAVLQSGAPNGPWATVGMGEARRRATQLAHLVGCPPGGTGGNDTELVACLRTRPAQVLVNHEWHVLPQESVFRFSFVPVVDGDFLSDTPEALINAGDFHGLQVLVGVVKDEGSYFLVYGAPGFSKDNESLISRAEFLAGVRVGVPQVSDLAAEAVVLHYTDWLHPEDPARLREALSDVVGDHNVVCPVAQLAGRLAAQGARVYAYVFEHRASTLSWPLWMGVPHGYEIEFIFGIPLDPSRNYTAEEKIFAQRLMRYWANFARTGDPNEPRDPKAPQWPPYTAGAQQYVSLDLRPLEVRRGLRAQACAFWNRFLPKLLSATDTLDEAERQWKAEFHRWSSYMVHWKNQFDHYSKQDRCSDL

SMILES: NC(=O)OC[C@@H]1[C@H](NC(=O)/C(=N\OCC(=O)O)c2csc(N)n2)C(=O)N1S(=O)(=O)O [CARUMONAM]
AC50 (Acetylcholinesterase [1]): > 500 µM

SMILES: C[N+]1(C)[C@@H]2CC[C@H]1C[C@@H](OC(=O)C(O)c1ccccc1)C2 (some centres not stated) [METHYLHOMATROPINE]
AC50 [2]: > 30 µM

SMILES: O=C1CC2(CCCC2)CC(=O)N1CCCCN1CCN(c2ncccn2)CC1 [BUSPIRONE]
AC50 [3]: 7.37 µM
AC50 (D(3) dopamine receptor): 0.048 µM
AC50 [4]: > 10 µM
AC50 [5]: > 10 µM
AC50 [6]: > 30 µM
AC50 [7]: > 10 µM
AC50 (D(1A) dopamine receptor): > 10 µM
AC50 [8]: > 10 µM
AC50 (Mu-type opioid receptor [9]): > 30 µM
AC50 [10]: > 10 µM
AC50 [11]: > 10 µM
AC50 (Cannabinoid receptor 1): 17.5 µM
AC50 (Mu-type opioid receptor [12]): > 30 µM

SMILES: C[N+]1(C)[C@@H]2C[C@@H](OC(=O)C(O)(c3cccs3)c3cccs3)C[C@H]1[C@@H]1O[C@@H]12 [TIOTROPIUM BROMIDE]
AC50 [13]: 0.0015 µM
AC50 [14]: 0.0003 µM

SMILES: CN1CCN2c3ccccc3Cc3ccccc3C2C1 (configuration not stated) [MIANSERIN]
AC50 [15]: 0.05 µM
AC50 (Acetylcholinesterase [16]): > 30 µM

SMILES: CC(=O)[C@H]1CC[C@H]2[C@@H]3CCC4=CC(=O)CC[C@]4(C)[C@H]3CC[C@]12C [PROGESTERONE]
AC50 (Acetylcholinesterase [16]): > 30 µM

AC50 (Bile salt export pump): > 300 µM
SMILES: Nc1cccc2c1CN(C1CCC(=O)NC1=O)C2=O (configuration not stated) [LENALIDOMIDE]

SMILES: CCN(CC)C(=S)SSC(=S)N(CC)CC
AC50 (Acetylcholinesterase [16]): 14.2 µM

SMILES: CCCC(=O)Nc1ncnc2c1ncn2[C@@H]1O[C@@H]2COP(=O)(O)O[C@H]2[C@H]1OC(=O)CCC [BUCLADESINE]
AC50 (Acetylcholinesterase [16]): > 30 µM

SMILES: NCCCC[C@H](N[C@@H](CCc1ccccc1)C(=O)O)C(=O)N1CCC[C@H]1C(=O)O [LISINOPRIL ANHYDROUS]
AC50 (Acetylcholinesterase [16]): > 30 µM

SMILES: CCN(c1cc(-c2ccc(CN3CCOCC3)cc2)cc(C(=O)NCc2c(C)cc(C)[nH]c2=O)c1C)C1CCOCC1 [TAZEMETOSTAT]
AC50 [17]: > 30 µM
AC50 (Acetylcholinesterase [1]): > 30 µM

SMILES: CC/C(=C(/CC)c1ccc(O)cc1)c1ccc(O)cc1 [DIETHYLSTILBESTROL]
AC50 (Acetylcholinesterase [16]): > 30 µM
